The source of these data is patent US9688760B2, “Anti-leukocyte adhesion for the mitigation of potential adverse events caused by CD3-specific binding domains” (AMGEN RESEARCH (MUNICH) GMBH, priority 2013, dated 2017).

For experiment [1], the system named is HUVEC. The experiment in a line: In vitro flow chamber: T cell-rolling and adhesion on HUVEC, long-term conditions. The class given is cell-based, human. Conditions: 40 min. On the procedure: Human brain microvascular endothelial cells (HBMEC) (#1000, Sciencell Research Laboratories) or human umbilical vein endothelial cells (HUVEC) (#C-12200, Promocell) were used as endothelial cell-model. Cryopreserved HBMEC at passage 1 (>5×10^5 cells/ml) were first cultivated in fibronectin-coated Nunclon-treated 75 cm^2 cell culture flasks (#156499, Nunc) at 37° C. and 5% CO2 in a Heraeus Cytoperm 2 (Thermo Scientific) according to the manufacturer's instructions. Sub-cultivation of HBMEC was done with the Detach Kit (#C-41200, Promocell) consisting of HEPES-buffered balanced salt solution (#C-40000, Promocell), trypsin-EDTA solution (0.04%/0.03%) (#C-41000, Promocell) and trypsin neutralization solution (TNS, #C-41100, Promocell). Briefly, the medium was aspirated from the HBMEC-layer and cells were washed with 2 ml of HEPES-buffered balanced salt solution. Addition of 2 ml of trypsin-EDTA solution for 1-5 min at room temperature led to detachment of HBMEC from the flask bottom. Inactivation of trypsin-EDTA solution was performed by addition of 2 ml of trypsin neutralization solution to the cell suspension. Cells were centrifuged at 300 g for 4 min in a Heraeus Megafuge 40 (Thermo Scientific) and seeded at a cell density of 5×10^5 cells per gelatin-coated 75 cm^2 cell culture flask (#L7230, Biochrom). HBMEC for rolling and adhesion experiments were cultivated in RPMI 1640 medium (#FG1215, Biochrom) supplemented with Nu-Serum IV (10%) (#355505, BD Biosciences), dialyzed FBS (10%) (#SZ0115, Biochrom), MEM-vitamins (1%) (#K0373, Biochrom), L-glutamine (1%) (#K0283, Biochrom), sodium-pyruvate (1%) (#L0473, Biochrom), heparin (10 U/ml) (#L6510, Biochrom), and […] cell growth factor ECGS (30 μg/ml) (#02-102, Millipore). Cultivation of HUVEC was done in endothelial cell growth medium (#C-22010, Promocell) supplemented with dialyzed FBS (10%) (#SZ0115, Biochrom) using gelatin-coated 75 cm^2 cell culture flasks. Sub-cultivation of HUVEC was performed with the Detach Kit ([…], Promocell) and cells were seeded at a cell density of 4.0-7.5×10^5 cells per 75 cm^2 cell culture flask.
Isolation of human PBMC from blood was performed by modified density gradient centrifugation as described elsewhere. Briefly, 15-20 ml of freshly drawn heparinized blood was transferred in Biocoll (#L6115, Biochrom)-containing Leukosep tubes (#227290, Greiner bio-one) and centrifuged in a Hettich Rotanta 460 RS Type 5606 (Hettich Laborapparate) at 1066 g for 15 min. After removal of the plasma fraction the PBMC containing phase was transferred in a new tube and washed twice with FACS-buffer (D-PBS #L1820, 5% FBS #SO115, Biochrom). Erythrocyte lysis was performed with lysis buffer (8.29 g/l NH4Cl, 1.00 g/l KHCO3, 0.037 g/l EDTA) for 5 min at room temperature. […]

Experiment [2] concerns recombinant human ICAM-1/VCAM-1. Put plainly: Flow chamber: Jurkat E6.1 T cell-rolling on recombinant ICAM-1/VCAM-1, semi short-term conditions. It counts as cell-based. Particulars: Jurkat E6.1 T cells, +AMG 103 10 ng/ml, t=45 min; coated at 12.5 and 10 μg/ml; control −AMG 103 640±91. The procedure:
Recombinant proteins (rhICAM-1 #ADP4-050, rhVCAM-1 #ADP5-050 or rhP-selectin #ADP3-050, R&D Systems) were dissolved in ddH2O according to the manufacturer's instructions. Prior to rolling experiments recombinant proteins were diluted in Dulbecco's PBS with Ca^2+ and Mg^2+ (#L1815, Biochrom) and coated onto a μ-slide VI^0.4 Luer ibiTreat (#80606, ibidi) over night at 4° C. Before usage slides were washed three times with Dulbecco's PBS and blocked where indicated with 20% FBS (#10270, Gibco) in PBS for 2 h at room temperature. Blocking solution was replaced by RPMI 1640 medium (#FG1215, Biochrom) without supplements. […]
For rolling experiments using Jurkat E6.1 T cells, these cells were resuspended in RPMI 1640 medium (#FG1215, Biochrom) without supplements to a final concentration of 1.5-3×10^5 cells/ml. […] Image sequences of 45 sec duration were recorded at t=40 min, 45 min, and 50 min as described in Example 2 (p. 50, 18-23).
Experiments under defined hydrodynamic flow conditions were performed by using either freshly isolated human T cells or Jurkat E6.1 T cells and μ-slide VI^0.4 Luer ibiTreat (#80606, ibidi) coated with different recombinant proteins as described above. […] T cell-interactions with recombinant proteins were recorded as described above and data was analyzed as described in detail in Example 2 (p. 50, 23-30). […]

With “Blinatumomab: recombinant CD19×CD3 bispecific scFv antibody consisting of four immunoglobulin variable domains assembled into a single polypeptide chain”, in experiment [1] (+AMG 103 10 ng/ml vs T cells alone, long-term), the “increase of number of adhering T cells” value was found to be 2.1 fold. The “mean T cell-rolling velocity±SD” value in experiment [1] (non-stimulated HUVEC (minocycline experiment), +AMG 103 10 ng/ml, control −AMG 103 169) came out at 127±41 μm/sec; in experiment [2], 518±98 μm/sec.
